Literature values in PMC6166790 (Nature, 2018).

Tested on: CLR/RAMP2 or CLR/RAMP3

Substance: adrenomedullin [AM]
- receptor response selectivity: selective AM responses
